Six compounds from ChEMBL document CHEMBL5465560, “Selectivity Literature for EUbOPEN Chemogenomic Library” (2024) can be followed below.

Each structure is given as a SMILES string.

Assay [1] deals with Tyrosine-protein kinase FRK (Homo sapiens) (UniProt P42685). The experiment in a line: Selectivity interaction (KinomeScan (DiscoverX)) EUB0000229b FRK. The settings on record: at 10 µM.
Assay [2] has as its target Protein arginine N-methyltransferase 8 (Homo sapiens, UniProt Q9NR22). In words: Selectivity interaction (Scintillation proximity assays) EUB0000255b PRMT8. A general note: Scintillation proximity formats need no separation of bound from free tracer.
Assay [3] has as its target T1, Myosin light chain kinase (Homo sapiens) (UniProt Q32MK0).
T1 sequence (whole entry): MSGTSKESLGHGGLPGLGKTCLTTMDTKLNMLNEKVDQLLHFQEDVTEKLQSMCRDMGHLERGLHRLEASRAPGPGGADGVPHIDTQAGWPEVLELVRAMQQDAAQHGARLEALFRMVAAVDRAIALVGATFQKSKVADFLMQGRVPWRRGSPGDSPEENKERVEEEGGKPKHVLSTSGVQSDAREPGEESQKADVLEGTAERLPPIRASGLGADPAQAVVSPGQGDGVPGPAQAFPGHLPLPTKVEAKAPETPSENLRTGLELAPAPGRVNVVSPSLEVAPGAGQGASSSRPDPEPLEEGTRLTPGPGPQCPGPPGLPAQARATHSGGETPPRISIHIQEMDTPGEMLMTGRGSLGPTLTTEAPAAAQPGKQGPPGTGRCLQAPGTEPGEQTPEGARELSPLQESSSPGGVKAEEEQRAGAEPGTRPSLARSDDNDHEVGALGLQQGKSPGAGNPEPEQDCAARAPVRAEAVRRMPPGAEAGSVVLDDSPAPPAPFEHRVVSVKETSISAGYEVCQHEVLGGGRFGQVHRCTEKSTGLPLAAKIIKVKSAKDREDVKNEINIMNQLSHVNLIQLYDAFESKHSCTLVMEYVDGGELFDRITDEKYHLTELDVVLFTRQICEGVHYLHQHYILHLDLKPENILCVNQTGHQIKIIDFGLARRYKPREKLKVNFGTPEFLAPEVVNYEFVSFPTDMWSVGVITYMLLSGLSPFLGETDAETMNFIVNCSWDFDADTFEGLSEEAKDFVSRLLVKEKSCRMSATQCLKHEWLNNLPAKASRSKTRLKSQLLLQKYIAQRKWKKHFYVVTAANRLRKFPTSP
The experiment in a line: Selectivity interaction (KinomeScan (DiscoverX)) EUB0001079a MYLK3. The settings on record: at 1 µM.

The target of assay [4] is Serine/threonine-protein kinase RIO2 (Homo sapiens) (UniProt Q9BVS4). The experiment in a line: Selectivity interaction (KinomeScan (DiscoverX)) EUB0001619a RIOK2. Particulars: at 1 µM.
Chain of Serine/threonine-protein kinase RIO2 (Homo sapiens) (Q9BVS4 whole entry, looked up): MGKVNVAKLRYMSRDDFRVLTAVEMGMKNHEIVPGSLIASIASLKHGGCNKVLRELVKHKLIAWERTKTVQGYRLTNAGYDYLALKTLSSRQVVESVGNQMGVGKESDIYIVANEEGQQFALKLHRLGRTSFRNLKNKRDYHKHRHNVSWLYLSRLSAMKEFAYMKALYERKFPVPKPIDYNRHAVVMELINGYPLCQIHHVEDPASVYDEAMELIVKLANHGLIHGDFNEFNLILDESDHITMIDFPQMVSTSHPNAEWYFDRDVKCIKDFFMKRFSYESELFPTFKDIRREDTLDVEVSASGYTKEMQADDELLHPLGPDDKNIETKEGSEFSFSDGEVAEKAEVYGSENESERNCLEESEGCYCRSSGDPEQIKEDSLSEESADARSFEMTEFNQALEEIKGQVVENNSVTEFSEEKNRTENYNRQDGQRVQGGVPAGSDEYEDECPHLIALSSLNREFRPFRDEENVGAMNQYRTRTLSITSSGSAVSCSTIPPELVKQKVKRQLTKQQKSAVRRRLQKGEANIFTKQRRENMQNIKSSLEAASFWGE
The target of assay [5] is T2, Myotonin-protein kinase (Homo sapiens) (UniProt Q09013).
T2 sequence (whole entry): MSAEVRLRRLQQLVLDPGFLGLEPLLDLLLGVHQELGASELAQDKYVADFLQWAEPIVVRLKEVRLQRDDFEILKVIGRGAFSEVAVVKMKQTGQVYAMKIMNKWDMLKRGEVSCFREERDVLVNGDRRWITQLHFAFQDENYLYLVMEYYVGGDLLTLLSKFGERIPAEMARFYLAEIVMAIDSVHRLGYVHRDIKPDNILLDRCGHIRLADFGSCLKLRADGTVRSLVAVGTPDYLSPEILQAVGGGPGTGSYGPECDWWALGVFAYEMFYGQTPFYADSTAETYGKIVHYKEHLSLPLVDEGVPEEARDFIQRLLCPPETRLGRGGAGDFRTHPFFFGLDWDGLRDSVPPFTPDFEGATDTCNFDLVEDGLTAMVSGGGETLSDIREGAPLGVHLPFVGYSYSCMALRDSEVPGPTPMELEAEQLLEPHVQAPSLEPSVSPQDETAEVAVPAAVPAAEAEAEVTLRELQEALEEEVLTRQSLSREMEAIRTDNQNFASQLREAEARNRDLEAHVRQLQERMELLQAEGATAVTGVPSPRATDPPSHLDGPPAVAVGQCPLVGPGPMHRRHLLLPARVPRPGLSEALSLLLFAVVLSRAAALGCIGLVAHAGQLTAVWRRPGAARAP
In words: Selectivity interaction (Kinase panel (Invitrogen)) EUB0000639a DMPK. The settings on record: at 200 nM.

Assay [6] deals with T3, Ankyrin repeat and protein kinase domain-containing protein 1 (Homo sapiens) (UniProt Q8NFD2).
T3 sequence (whole entry): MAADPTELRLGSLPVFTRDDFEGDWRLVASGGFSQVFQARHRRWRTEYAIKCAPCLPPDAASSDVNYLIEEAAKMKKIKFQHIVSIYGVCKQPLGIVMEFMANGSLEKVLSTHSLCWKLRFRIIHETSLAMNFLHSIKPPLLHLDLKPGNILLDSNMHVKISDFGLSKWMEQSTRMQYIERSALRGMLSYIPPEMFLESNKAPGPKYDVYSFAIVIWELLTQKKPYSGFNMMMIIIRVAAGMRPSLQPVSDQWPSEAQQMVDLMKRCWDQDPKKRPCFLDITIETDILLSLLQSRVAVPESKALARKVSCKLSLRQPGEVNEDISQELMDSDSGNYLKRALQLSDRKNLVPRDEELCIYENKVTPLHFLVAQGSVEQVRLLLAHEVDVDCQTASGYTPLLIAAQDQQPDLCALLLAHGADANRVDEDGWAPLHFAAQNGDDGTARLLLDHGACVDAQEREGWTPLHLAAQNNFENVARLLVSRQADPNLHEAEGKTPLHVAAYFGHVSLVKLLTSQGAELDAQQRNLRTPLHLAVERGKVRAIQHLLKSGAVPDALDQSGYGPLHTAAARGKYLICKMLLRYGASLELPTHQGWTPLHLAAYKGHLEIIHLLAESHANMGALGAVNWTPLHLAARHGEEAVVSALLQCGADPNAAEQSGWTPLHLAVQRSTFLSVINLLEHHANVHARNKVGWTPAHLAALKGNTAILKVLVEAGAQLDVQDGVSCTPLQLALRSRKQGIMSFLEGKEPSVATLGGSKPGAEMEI
The settings on record: at 10 µM.

In assay [7] the target is Tyrosine-protein kinase JAK2 (Homo sapiens, UniProt O60674). Particulars: at 10 µM.
Chain of Tyrosine-protein kinase JAK2 (O60674 whole entry): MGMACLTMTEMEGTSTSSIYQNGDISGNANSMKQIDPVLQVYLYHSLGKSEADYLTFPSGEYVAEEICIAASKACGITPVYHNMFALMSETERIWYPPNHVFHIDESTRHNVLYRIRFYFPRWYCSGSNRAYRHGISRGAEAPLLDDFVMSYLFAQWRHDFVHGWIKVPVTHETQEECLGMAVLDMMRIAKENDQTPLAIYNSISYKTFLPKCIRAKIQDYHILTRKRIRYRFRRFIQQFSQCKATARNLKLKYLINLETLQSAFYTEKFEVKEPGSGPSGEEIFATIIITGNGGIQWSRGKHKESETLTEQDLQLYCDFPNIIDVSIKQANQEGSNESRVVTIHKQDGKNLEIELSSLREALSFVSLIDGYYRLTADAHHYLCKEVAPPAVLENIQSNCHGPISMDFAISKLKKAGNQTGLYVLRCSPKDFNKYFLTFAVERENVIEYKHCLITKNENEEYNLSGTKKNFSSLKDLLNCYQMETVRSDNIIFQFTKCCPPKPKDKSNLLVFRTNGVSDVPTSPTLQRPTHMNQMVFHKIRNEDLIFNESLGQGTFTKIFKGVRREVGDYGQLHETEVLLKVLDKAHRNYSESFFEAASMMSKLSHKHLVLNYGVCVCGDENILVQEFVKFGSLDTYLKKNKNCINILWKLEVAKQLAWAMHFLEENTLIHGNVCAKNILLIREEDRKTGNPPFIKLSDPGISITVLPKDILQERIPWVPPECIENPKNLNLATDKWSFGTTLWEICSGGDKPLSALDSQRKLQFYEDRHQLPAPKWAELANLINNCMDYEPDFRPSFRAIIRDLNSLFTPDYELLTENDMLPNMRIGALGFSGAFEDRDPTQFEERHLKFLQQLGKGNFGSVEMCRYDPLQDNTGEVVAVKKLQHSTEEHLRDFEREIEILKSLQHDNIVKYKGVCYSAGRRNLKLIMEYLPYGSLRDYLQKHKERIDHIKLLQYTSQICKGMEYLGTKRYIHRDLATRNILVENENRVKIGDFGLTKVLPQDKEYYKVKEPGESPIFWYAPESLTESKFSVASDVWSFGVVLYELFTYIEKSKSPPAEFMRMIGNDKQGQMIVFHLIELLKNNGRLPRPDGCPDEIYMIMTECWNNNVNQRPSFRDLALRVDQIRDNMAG

Chain of Protein arginine N-methyltransferase 8 (Q9NR22 whole entry): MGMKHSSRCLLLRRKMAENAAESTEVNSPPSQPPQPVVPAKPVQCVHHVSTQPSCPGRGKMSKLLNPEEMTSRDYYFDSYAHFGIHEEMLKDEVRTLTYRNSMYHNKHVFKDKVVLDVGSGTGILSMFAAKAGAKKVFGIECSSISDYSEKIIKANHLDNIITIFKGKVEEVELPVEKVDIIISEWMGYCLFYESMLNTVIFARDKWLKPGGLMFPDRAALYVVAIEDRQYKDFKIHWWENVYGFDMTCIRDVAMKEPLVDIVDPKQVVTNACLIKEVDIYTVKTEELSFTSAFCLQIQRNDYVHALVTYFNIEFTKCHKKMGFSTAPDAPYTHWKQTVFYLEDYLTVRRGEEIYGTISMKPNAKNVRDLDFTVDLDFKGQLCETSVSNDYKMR
Chain of Tyrosine-protein kinase FRK (Homo sapiens) (P42685 whole entry): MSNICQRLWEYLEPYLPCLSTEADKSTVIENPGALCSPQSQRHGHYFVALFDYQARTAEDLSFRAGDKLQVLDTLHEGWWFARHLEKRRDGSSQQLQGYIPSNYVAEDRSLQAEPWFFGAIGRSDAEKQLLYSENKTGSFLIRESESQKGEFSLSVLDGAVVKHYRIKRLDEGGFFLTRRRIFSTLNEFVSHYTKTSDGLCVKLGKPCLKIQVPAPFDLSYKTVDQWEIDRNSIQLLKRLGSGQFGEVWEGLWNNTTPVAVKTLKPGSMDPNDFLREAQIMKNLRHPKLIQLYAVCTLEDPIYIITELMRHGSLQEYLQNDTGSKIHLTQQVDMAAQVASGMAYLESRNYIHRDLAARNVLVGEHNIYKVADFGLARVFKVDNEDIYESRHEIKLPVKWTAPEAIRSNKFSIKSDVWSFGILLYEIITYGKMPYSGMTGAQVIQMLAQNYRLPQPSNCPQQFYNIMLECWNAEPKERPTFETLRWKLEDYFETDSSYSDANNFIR

`COc1cc(N(C)c2ccnc3ccc(C(F)(F)F)cc23)cc(OC)c1OC` displayed a % binding in assay [1] of 95%.

Usually IC50 stands for the concentration at which inhibition is half-maximal. Take `COCCN1CCC(c2cc(CN(C)C(=O)c3cccc(Oc4ccccc4)c3)ccn2)CC1`: the concentration for half-maximal inhibition (IC50) in assay [2] was more than 10 µM.

With `Nc1cnc(N2CCc3cc(S(=O)(=O)Nc4c(F)cc(Cl)cc4F)cc(N4CCCC4=O)c32)nc1` [TP-020n], the % of control in assay [3] came out at 100%.

In assay [4], `N#Cc1cccc(-c2c[nH]c3ncnc(N4CCOCC4)c23)c1` showed a % of control of 75%.

Consider `CC[C@@H]1[C@H](F)C(=O)N[C@@H]1COc1nccc2cc(C(N)=O)c(OC)cc12` [ZIMLOVISERTIB], for which the % of inhibition in assay [5] is -0.603%.

For `CCN(CC)CCCCNc1ncc2cc(-c3cc(OC)cc(OC)c3)c(NC(=O)NC(C)(C)C)nc2n1`, the % of control in assay [6] and in assay [7] was 100% each time.
